From patent US5912351A, “Anhydrous 1,4-Dihydropyridines and salts thereof” (Recordati, S.A. Chemical and Pharmaceutical Company, priority 1995, dated 1999) come the findings set out here.

Read-outs that look alike come from different tables or passages of the source. Some results are limits rather than exact numbers.

Experiment [1] concerns mouse peritoneal macrophages. Kind of experiment: Cholesteryl ester hydrolysis in macrophages. The class given is cell-based. The settings on record: AcLDL 50 μg/ml + S-58035 1 μg/ml + 5 × 10^-6 M compound. As for the experimental part: These experiments were performed by incubating cells preloaded with [^3 H]cholesterol in the presence of the specific ACAT inhibitor S-58035. The blockage of intracellular reesterification of cholesterol allowed the assessment of the ability of cells to hydrolyze the accumulated cholesterol esters.
For studies involving the quantitation of the hydrolysis of cholesteryl esters in cytoplasmic lipid droplets, cells, prepared according to the procedure in Example 6A, are loaded with cholesteryl esters by exposure for 24 hours to the medium containing 50 μg/ml acetyl LDL. [1,2-^3 H]Cholesterol is included in all loading media at a concentration of 0.5 μCi/ml. After 24 hours loading period, during which time the radiolabeled cholesterol is incorporated and esterified, the cell monolayers are washed and incubated an additional 24 hours in medium containing 0.1% bovine serum albumin to allow the intracellular pools of labelled cholesterol to equilibrate to the same specific activity. To quantitate cholesteryl ester hydrolysis, the loaded cells are incubated for up to 24 hours in Dulbecco's minimum essential medium containing, 0.1% bovine serum albumin, lercanidipines, and the compound S-58035, an inhibitor of acyl-coenzyme A-cholesterol acyltransferase. The inhibition of acyl-coenzyme A-cholesterol acyltransferase prevents the reesterification of any free cholesterol generated by cholesteryl ester hydrolysis and thus allows assessment of the activity of the hydrolase. The hydrolysis of the cholesteryl esters is quantified by determining the decrease of radiolabeled cholesteryl esters (E. H. Harrison et al., J. Lipid. Res. 31: […] with phosphate buffered saline and extracted with hexane:isopropanol (3:2 v/v). The media were extracted with chloroform:methanol (2:1 v/v). After solvent removal, free and esterified cholesterol were separated by TLC (isooctane:diethyl ether:acetic acid, 75:25:2 by volume). Cholesterol mass or radioactivity of the spots were determined by an enzymatic method (Boehringer Mannheim, Germany) (F. Bernini et al., Atherosclerosis 104: 19 (1993)) or by liquid scintillation counting (Lipoluma Lumac, Landgraf, The Netherlands) respectively.

The next experiment has as its system renal hypertensive dogs. Kind of experiment: Blood pressure in renal hypertensive dogs, oral administration. The class given is in vivo, dog. The settings on record: for ED25: Canis lupus familiaris, linear regression analysis, read-out: ED25 (dose inducing 25% decrease in DBP at peak effect), 95% C.L. On the procedure: The antihypertensive effects of oral administration of lercanidipine and its enantiomers were tested in renal hypertensive dogs.
Male Beagle dogs weighing 12-13 kg, aging 1-3 years (Nossan Allevamenti, Italy) were used. Chronic sustained hypertension was induced by bilateral renal artery constriction, according to the Goldblatt method "two-kidney, two clip hypertension". Under barbiturate anaesthesia (35 mg/kg i.v.), during two different surgical interventions one month apart from each other, both renal arteries were clipped with original renal silver clips and narrowed by about 60-70%. After two months from the last intervention,an experimental renal hypertension was produced and the animals were suitable for the implantation of a catheter. Under sodium pentobarbital anaesthesia (35 mg/kg i.v.), in sterile conditions, the dogs were catheterized by inserting an indwelling cannula (PE 200 Clay Adams) into the ascending aorta through the right common carotid artery. The catheter was subcutaneously exteriorized at the back of the neck, filled with heparinized saline solution and flushed daily to prevent clotting. After a week recovery time from surgery, the animals were connected to a HP 1290A pressure transducer connected to an HP 8805B carrier amplifier of a Hewlett Packard HP 7700 multichannel polygraph, to monitor the arterial blood pressure. Heart rate was manually computed from the pressure trace.
All animals were alternatively treated with placebo, lercanidipine and its (R)- and (S)- enantiomers. The drugs were administered orally with a straight round aseptic tip catheter (Pores Serlat--France). The drugs were suspended in aqueous 0.5% Methocel A4C plus Antifoam M10 (10%). The amount administered was 1 ml/kg.
The suspending medicine was used as placebo. During experimental performance, the arterial blood pressure was continuously recorded 30 min. before (basal values) and up to 8 hours after drug administration.
The ED25 values (dose inducing 25% decrease in DBP at peak effect) were evaluated by linear regression analysis and summarized in the Table 4.

The test system of experiment [2] is rat aortic smooth muscle cells (myocytes). Kind of experiment: Myocytes growth inhibition measured by cell count (rat myocytes). The class given is cell-based. The settings on record: 72 h, cell count after 72 hours, read-out: IC50 = concentration required to inhibit cell growth by 50%. As for the experimental part:
Migration of myocytes was investigated for the present invention using rat aortic smooth muscle cells in the presence of fibrinogen as chemotactic factor, whereas for studies on their proliferation rat and human cells were used. Cell count and [3H]-thymidine incorporation were used to evaluate myocytes growth. The methodology was as follows:
Myocytes were cultured from the intima-medial layer of the aortas of male Sprague-Dawley rats (200-250 g). Cells were grown in monolayers at 37° C. in a humidified atmosphere of 5% CO2 in Eagle's minimum essential medium supplemented with 10% (v/v) fetal calf serum, 100 U/ml penicillin, 0.1 mg/ml streptomycin, 20 mM tricine buffer and 1% (v/v) non-essential amino acid solution. The medium was changed every third day. Cells were used between the 4th and 10th passage. Cell viability was timely assessed by trypan blue exclusion. Myocytes were identified for growth behavior, morphology and using monoclonal antibody specific for a-actin, the actin isoform typical of myocytes. Human vascular myocytes (A 617 from human femoral artery) kindly provided by Prof. G. Gabbiani of The General Pathology Institute (Geneva University--Switzerland) were grown in the same culture conditions. (These or other human vascular myocytes can be obtained and cultured as described by Corsini et al., Atherosclerosis, 101: 117-125, (1993); Corsini et al., Pharm. Res, 23: 173 (1991); Ross, R, J. Cell Bio., 50: 172, (1971); and Skalli, 0. et al., J. Cell Bio., 103: 2787 (1986)).
Cells were seeded at various densities for rat (2×10^5) and human (5 10×10^4) myocytes/petri dish (35 mm), and incubated with Eagle's minimum essential medium supplemented with 10% fetal calf serum. Twenty-four hours later the medium was changed to one containing 0.4% fetal calf serum to stop cell growth, and the cultures were incubated for 72 hours. At this time (time 0) the medium was replaced by one containing 10% fetal calf serum in the presence or absence of known concentrations of the 1,4-dihydropyridine compounds being tested (shown in Table 1). The incubation was continued for an additional 72 hours at 37° C. Just before the addition of the test substances, an aliquot from each petri dish was used for cell counting. Cell proliferation was evaluated by cell count after trypsinization of the monolayers using a Coulter Counter model ZM. Cell viability was assessed by trypan blue exclusion, and found to be greater than 95% at the drug concentrations used.

Setting [3] is: myocytes from SD (Sprague Dawley) rat.
The mark [4] stands for this setting: myocytes from SHR (Spontaneously Hypertensive) rat.
Setting [5] is: myocytes from WK (Wistar Kyoto) rat.

In the case of `COC(=O)C1=C(C)NC(C)=C(C(=O)OC(C)(C)CN(C)CCC(c2ccccc2)c2ccccc2)C1c1cccc([N+](=O)[O-])c1` (racemic) [LE, methyl 1,1,N-trimethyl-N-(3,3-diphenylpropyl)-2-aminoethyl 1,4-dihydro-2,6-dimethyl-4-(3-nitrophenyl)-pyridine-3,5-dicarboxylate], the “% of cholesteryl ester” value in experiment [1] worked out at 12 ± 1.2%. Moreover, in the experiment with renal hypertensive dogs, the arterial blood pressure result is “dose-related decrease” and the ED25 was found to be 0.9 mg/kg.
With `COC(=O)C1=C(C)NC(C)=C(C(=O)OC(C)(C)CN(C)CCC(c2ccccc2)c2ccccc2)[C@@H]1c1cccc([N+](=O)[O-])c1` [(R)-LE, (R)-(-)METHYL 1,1-N-TRIMETHYL-N-(3,3-DIPHENYLPROPYL)-2-AMINOETHYL 1,4-DIHYDRO-2,6-DIMETHYL-4-(3-NITROPHENYL)PYRIDINE-3,5-DICARBOXYLATE], the results for the IC50 in experiment [2] (setting [3]), in experiment [2] (setting [4]) and in experiment [2] (setting [5]) were 30.7 µM, 9.2 µM and 15.3 µM, respectively. Moreover, the “% of cholesteryl ester” value in experiment [1] worked out at 16 ± 2.1%. For the same molecule, the ED25 in the experiment on renal hypertensive dogs was over 30 mg/kg. Besides, in the experiment on renal hypertensive dogs (up to 30 mg/kg), the “decrease in DBP” value is listed as under 10%.
For the molecule `COC(=O)C1=C(C)NC(C)=C(C(=O)OC(C)(C)CN(C)CCC(c2ccccc2)c2ccccc2)[C@H]1c1cccc([N+](=O)[O-])c1` [(S)-LE, (S)-(+)-METHYL 1,1-N-TRIMETHYL-N-(3,3-DIPHENYLPROPYL)-2-AMINOETHYL 1,4-DIHYDRO-2,6-DIMETHYL-4-(3-NITROPHENYL)PYRIDINE-3,5-DICARBOXYLATE], the IC50 in experiment [2] (setting [3]) was 33.3 µM. In experiment [2] (setting [4]), the IC50 was 16.8 µM. In addition, the IC50 in experiment [2] (setting [5]) was determined as 20.7 µM. For the same molecule, in experiment [1], the “% of cholesteryl ester” value is recorded as 14 ± 0.4%. Besides, in the experiment with renal hypertensive dogs, the arterial blood pressure result was “dose-related decrease”, the “efficacy at lowering blood pressure relative to the racemate” value is “two fold more efficacious” and the ED25 came out at 0.4 mg/kg.
